Reference: patent EP4631959A2, “NOVEL MINIGASTRIN-DERIVED CHOLECYSTOKININ 2 RECEPTOR BINDING MOLECULES FOR IMAGING AND TARGETED RADIOTHERAPY” (priority 2022, dated 2024)
Read-outs that look alike come from different tables or passages of the source. Starred links: 1 amine or outer side, 2 acyl side, 3 side chain; linkers in the order of their positions; H or OH if unused. Non-standard residues stand in square brackets, D forms with d. Residues, ends and D or L forms follow the SMILES beside them. *: point of attachment. Benzoyl(4-SiFtBu2) = CC(C)(C)[Si](F)(c1ccc(C(=O)*)cc1)C(C)(C)C; DOTA = O=C(O)CN1CCN(CC(=O)O)CCN(CC(=O)*)CCN(CC(=O)O)CC1; d(γGlu) = O=C(O)[C@@H](CCC(=O)[*:2])N[*:1]; 1Nal = N[C@@H](Cc1cccc2ccccc12)C(=O)O; Hyp = O=C(O)[C@@H]1C[C@@H](O)CN1; NMeNle = CCCC[C@H](NC)C(=O)O; PEG4 = NCCOCCOCCOCCOCCC(=O)O; dDap = NC[C@@H](N)C(=O)O

Biological target: T1, CCK-2R (Rattus norvegicus, UniProt P30553)
T1 construct: The CCK-2R expressing rat pancreatic tumor cells AR4-2J; host or cells: AR4-2J rat pancreatic tumor cells
T1 sequence (P30553 1-452): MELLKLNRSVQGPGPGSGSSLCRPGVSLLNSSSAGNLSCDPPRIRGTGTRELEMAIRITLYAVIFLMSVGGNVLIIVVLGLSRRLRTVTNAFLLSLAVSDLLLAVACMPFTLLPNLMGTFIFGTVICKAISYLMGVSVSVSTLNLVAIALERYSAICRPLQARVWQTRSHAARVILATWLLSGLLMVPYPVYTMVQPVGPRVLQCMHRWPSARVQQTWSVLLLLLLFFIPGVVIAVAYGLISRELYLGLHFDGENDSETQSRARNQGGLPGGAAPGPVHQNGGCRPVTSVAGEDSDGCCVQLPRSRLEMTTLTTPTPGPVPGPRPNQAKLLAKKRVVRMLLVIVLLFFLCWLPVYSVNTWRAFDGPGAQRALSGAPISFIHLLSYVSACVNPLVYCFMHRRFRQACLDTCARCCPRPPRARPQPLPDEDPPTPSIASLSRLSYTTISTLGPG
Experiment: Determination of IC50: CCK-2R affinity on AR4-2J cells, competition with [^177Lu]Lu-DOTA-PP-F11N
Format: binding
Settings: AR4-2J cells
Procedure, shortened: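 Competitive displacement of 0.3 pmol/well [177Lu]Lu-DOTA-PP-F11N by compounds (10^-10 to 10^-4 M) on AR4-2J cells in BSA-supplemented medium, 3 h at 37 °C. Free label was collected from medium plus PBS rinse, and cell-bound label was recovered with 1 M NaOH, both measured by γ-counter. Each IC50 was determined twice, in triplicate.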

CCCC[C@@H](C(=O)N[C@@H](CC(=O)O)C(=O)N[C@@H](Cc1cccc2ccccc12)C(N)=O)N(C)C(=O)[C@H](Cc1c[nH]c2ccccc12)NC(=O)CCOCCOCCOCCOCCNC(=O)CC[C@@H](NC(=O)[C@@H]1C[C@@H](O)CN1C(=O)[C@@H]1C[C@@H](O)CN1C(=O)[C@@H]1C[C@@H](O)CN1C(=O)[C@@H]1C[C@@H](O)CN1C(=O)[C@@H]1C[C@@H](O)CN1C(=O)[C@@H]1C[C@@H](O)CN1C(=O)CC[C@@H](NC(=O)[C@@H](CNC(=O)c1ccc([Si](F)(C(C)(C)C)C(C)(C)C)cc1)NC(=O)CN1CCN(CC(=O)O)CCN(CC(=O)O)CCN(CC(=O)O)CC1)C(=O)O)C(=O)O [DOTA-rhCCK-84, DOTA-dap(SiFA)-γ-glu-(Hyp)6-γ-glu-(PEG)3-Trp-(N-Me)Nle-Asp-1-Nal-NH2] ({DOTA}-[dDap](Benzoyl(4-SiFtBu2))[d(γGlu)][Hyp][Hyp][Hyp][Hyp][Hyp][Hyp][d(γGlu)][PEG4]W[NMeNle]D[1Nal]-NH2)
IC50 (read-out: IC50 [nM] (n = 3), ^natGa-labeled, ^natGa-labeled): 27.7 ± 3.1 nM | IC50 (read-out: IC50 [nM] (n = 3), ^natLu-labeled, ^natLu-labeled): 7.87 ± 0.3 nM
